tested on: not listed separately; assay: Cytotoxicity against BALB/c mouse splenocytes after 24 hrs by [3H]thymidine incorporation assay; assay type: cell-based; conditions: splenocyte

Row | SMILES | Activity
1 | O=C1CSC(N/N=C\CSc2ccc(Br)cc2)=N1 | > 100 µg/mL
2 | Cc1ccc(SC/C=N\NC2=NC(=O)CS2)cc1 | > 100 µg/mL
3 | O=C1CSC(N/N=C\CCSc2ccccc2)=N1 | > 100 µg/mL
4 | Cc1ccc(SC/C=N\NC2=NC(=O)C(C)S2)cc1 (stereo unspecified) | > 100 µg/mL
5 | O=C1CSC(N/N=C\CSc2ccccc2)=N1 | > 100 µg/mL
6 | O=C1CSC(N/N=C\CSc2ccc(Cl)cc2)=N1 | > 100 µg/mL
7 | CCC1SC(N/N=C\CSc2ccccc2)=NC1=O (stereo unspecified) | > 100 µg/mL
8 | C/C(CSc1ccccc1)=N/NC1=NC(=O)C(C)S1 (stereo unspecified) | > 100 µg/mL
9 | O=C(Cn1ccnc1[N+](=O)[O-])NCc1ccccc1 [BENZNIDAZOLE] | 25 µg/mL
10 | CC1CS(=O)(=O)CCN1/N=C/c1ccc([N+](=O)[O-])o1 (stereo unspecified) [NIFURTIMOX] | 1 µg/mL

tested on: Trypanosoma cruzi; assay: Antitrypanosomal activity against Trypanosoma cruzi Y epimastigote form after 11 days by Trypan blue exclusion method; assay type: functional, organism-based; conditions: 264 h

Row | SMILES | IC50
11 | O=C1CSC(N/N=C\CSc2ccc(Br)cc2)=N1 | 42.9 µM
12 | Cc1ccc(SC/C=N\NC2=NC(=O)CS2)cc1 | 92.3 µM
13 | O=C1CSC(N/N=C\CCSc2ccccc2)=N1 | 2.9 µM
14 | Cc1ccc(SC/C=N\NC2=NC(=O)C(C)S2)cc1 (stereo unspecified) | 63.4 µM
15 | O=C1CSC(N/N=C\CSc2ccccc2)=N1 | 35 µM
16 | O=C1CSC(N/N=C\CSc2ccc(Cl)cc2)=N1 | 43.9 µM
17 | CCC1SC(N/N=C\CSc2ccccc2)=NC1=O (stereo unspecified) | 0.3 µM
18 | C/C(CSc1ccccc1)=N/NC1=NC(=O)C(C)S1 (stereo unspecified) | 83.3 µM
19 | O=C(Cn1ccnc1[N+](=O)[O-])NCc1ccccc1 [BENZNIDAZOLE] | 6.6 µM
20 | CC1CS(=O)(=O)CCN1/N=C/c1ccc([N+](=O)[O-])o1 (stereo unspecified) [NIFURTIMOX] | 1.9 µM

tested on: Trypanosoma cruzi; assay: Antitrypanosomal activity against Trypanosoma cruzi Y trypomastigote form after 24 hrs by Trypan blue exclusion method; assay type: functional, organism-based; conditions: not given

Row | SMILES | IC50
21 | Cc1ccc(SC/C=N\NC2=NC(=O)CS2)cc1 | 20 µM
22 | O=C1CSC(N/N=C\CCSc2ccccc2)=N1 | 10 µM
23 | Cc1ccc(SC/C=N\NC2=NC(=O)C(C)S2)cc1 (stereo unspecified) | 84.8 µM
24 | O=C1CSC(N/N=C\CSc2ccccc2)=N1 | 7.8 µM
25 | O=C1CSC(N/N=C\CSc2ccc(Cl)cc2)=N1 | 82.4 µM
26 | CCC1SC(N/N=C\CSc2ccccc2)=NC1=O (stereo unspecified) | 48.2 µM

From ChEMBL document CHEMBL1155255, “Ruthenium complexes endowed with potent anti-Trypanosoma cruzi activity: Synthesis, biological characterization and structure-activity relationships” (Bioorg Med Chem, 2009)
